Consider 21 molecules from PubChem BioAssay (NCI).

Holding throughout (test): inhibition of tumour cell growth, NCI panel, 48 h
The test system of assay [1] is COLO 205 colon.
For assay [2], the system named is EKVX NSCLC.
For assay [3], the system named is HCT-15 colon.
Assay [4] concerns HT29 colon.
Assay [5] concerns LOX IMVI melanoma.
Assay [6] deals with MDA-MB-435.
In assay [7] the test system is MDA-N.
In assay [8] the test system is NCI-H460 lung.
Assay [9] has as its system RPMI-8226 leukemia.
Assay [10] has as its system SK-MEL-5 melanoma.
Assay [11] concerns SK-OV-3 ovarian.
The test system of assay [12] is U251 CNS.
Assay [13] deals with UO-31 renal.

Each structure is given as a SMILES string. “And” between values parts separate entries of the source, which are not always exact repeats. Equal values may be shown once.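 Where inhibition never reached the appropriate level, the endpoint shown equals the highest concentration tested. Otherwise, values were interpolated linearly from a five-concentration, 48-hour dose response in 96-well plates. Abbreviation: GI50, concentration required for 50% inhibition of growth. TGI marks complete inhibition of growth.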 Where a SMILES comes first, the peptide text is derived from it. The star is where a group is joined. Cbz = O=C(OCc1ccccc1)* Where only a bound is given, the exact number is not on record here.

For `COC(=O)[C@@H](NC(=O)N(Cc1ccccc1)C[C@H](CC(C)C)NC(=O)[C@@H](NC(=O)OC(C)(C)C)C(C)C)C(C)C`, the TGI in assay [1], in [2], in [3], in assay [4], in assay [5] and in assay [6] was more than 100 µM each time. Besides, the TGI in [7], in assay [8], in [9], in assay [10], in [11] and in assay [12] was more than 100 µM in each case. Further, the TGI in assay [13] was more than 100 µM.
Take `Cc1ccc(C(=O)NCc2ccccc2)cc1N=NN(C)C`: the TGI in assay [1], in [2], in assay [3], in [4], in assay [5] and in assay [6] was more than 100 µM each time. The TGI in assay [7], in [8], in assay [9], in [10], in [11] and in assay [12] was more than 100 µM throughout. Besides, the TGI in assay [13] is more than 100 µM.
Regarding `CCC1CC(O)c2c(O)c3c(c(O)c2C1O)C(=O)c1cccc(O)c1C3=O` (stereo not given) (tested in a mixture with another compound), the TGI in assay [1] was 0.0939 µM and 0.019 µM; in assay [2] it was 0.0864 µM and 0.192 µM; in assay [4], 0.181 µM and 0.202 µM; in assay [5] it was 0.0509 µM; in assay [6] it was 0.0713 µM and 0.0207 µM; in assay [7], 0.093 µM and 0.0639 µM. The TGI is 0.271 µM in assay [8]; 0.0663 µM in [9]; 0.0374 µM and 0.0138 µM in [10]; 5.7 µM in assay [11]; 0.23 µM and 0.331 µM in [12]; 0.038 µM in assay [13]. Besides, the results for the GI50 in assay [3] and in assay [11] were 0.0237 µM and 0.0111 µM, respectively.
Turning to `Cc1ccc2c(c1)CC1(Cc3cccc(C)c3C1=O)C2=O` (stereo not given), the TGI was more than 100 µM in assay [1]; more than 100 µM in [2]; more than 100 µM in assay [3]; more than 100 µM in assay [4]; more than 10 µM in [5]; more than 10 µM in assay [6]. The TGI in assay [7] is more than 10 µM; in assay [8], more than 100 µM; in [9], more than 100 µM; in assay [10], more than 100 µM; in assay [11], more than 100 µM; in assay [12] it was more than 100 µM. This molecule yielded a TGI in [13] of more than 100 µM.
Regarding `CC(=O)SC(C[N+](=O)[O-])c1ccc2c(c1)OCO2` (stereo not given), the TGI in assay [1] is 36.9 µM; in assay [2], 52.5 µM; in assay [3], 11.1 µM; in [4], 5.56 µM; in assay [5] it was 4.35 µM; in [6], 17.6 µM. Also, the TGI in assay [7] was 4.64 µM; in assay [8] it was 26.2 µM; in assay [9] it was more than 22.7 µM; in assay [10] it was 19.9 µM; in assay [11], 18 µM; in assay [12], 13 µM. Besides, in [13], the TGI came out at 11.9 µM.
Turning to `O=C(Cn1c2ccc(Br)cc2c2nc3ccccc3nc21)NNC(=S)NC1CCCCC1`, the TGI in assay [1] was determined as 26 µM; in assay [2], 43.1 µM; in assay [3], 25.4 µM; in assay [4], 28.9 µM; in assay [5], 24.9 µM; in assay [6], 34.2 µM. The TGI came out at 30.4 µM in assay [7]; 24.9 µM in [8]; 26.8 µM in assay [9]; 28 µM in assay [10]; 70.8 µM in assay [11]; 28.3 µM in assay [12]. This molecule yielded a TGI in [13] of 22.3 µM.
Take `c1ccc2c3[nH]c(c2c1)=Nc1ccc(cc1)-c1nc2ccc(cc2o1)N=c1[nH]c(c2ccccc12)=Nc1ccc2nc(oc2c1)-c1ccc(cc1)N=3`: the TGI is 67.8 µM in assay [1]; more than 100 µM in assay [2]; 25.3 µM in [3]; more than 100 µM in assay [4]; more than 100 µM in assay [5]; more than 100 µM in assay [6]. The TGI in [7] was more than 100 µM; in [8] it was 20.5 µM; in [9], 86.2 µM; in assay [10], 29.4 µM; in assay [11] it was more than 100 µM; in [12], 88.3 µM. Besides, the TGI in assay [13] turned out to be 45.5 µM.
In the case of `CC(NC(=O)c1c(O)[nH]c(=S)[nH]c1=O)c1ccc([N+](=O)[O-])cc1` (stereo not given), the TGI in [1], in assay [2], in assay [3], in assay [4], in assay [5] and in assay [6] was more than 100 µM each time. For the same molecule, the TGI in assay [7], in assay [8], in assay [9], in [10], in assay [11] and in assay [12] was more than 100 µM in each case. The molecule further had a TGI in [13] of more than 100 µM.
In the case of `NCCCN(CCCN)CCc1cn(C(=O)c2ccccc2)cn1`, the TGI in assay [1] came to 9.58 µM; in assay [2] it was 23.3 µM; in assay [3] it was 27.1 µM; in [4] it was 29.5 µM; in [5], 43.5 µM; in assay [6] it was 14.3 µM. Besides, the TGI in [7] was determined as 40.5 µM; in assay [8], 39 µM; in [9] it was 10 µM; in assay [10], 21 µM; in assay [11], 27.5 µM; in [12], 30.1 µM.
In the case of `CCCCC1Cc2cc(O)ccc2-c2nc3cc(O)ccc3n21` (stereo not given) (tested in a mixture with another compound), the TGI in assay [1] turned out to be 29.7 µM; in assay [2], 51.9 µM; in assay [3] it was 25 µM; in [4], 31.9 µM; in assay [5] it was 30.9 µM; in [6] it was 26.1 µM. In addition, the TGI in assay [7] amounted to 36.3 µM; in assay [8], 32.9 µM; in assay [9], 31.5 µM; in assay [10] it was 26.3 µM; in assay [11], 40.4 µM; in [12], 27.5 µM. This molecule showed a TGI in [13] of 28.5 µM.
In the case of `O=C1c2c(Br)sc(Br)c2C(=O)C1(O)O`, the TGI was 50.7 µM in assay [1]; more than 100 µM in assay [2]; 73.4 µM in assay [3]; more than 100 µM in [4]; more than 100 µM in [5]; 38.9 µM in [6]. Moreover, the TGI in assay [7] was more than 100 µM; in [8], more than 100 µM; in [9] it was more than 100 µM; in assay [10], 42.6 µM; in [11], more than 100 µM; in assay [12], more than 100 µM. The molecule further registered a TGI in [13] of 58.2 µM.
For the molecule `Oc1c(Br)ccc2cccnc12`, the TGI in assay [1] is more than 33.8 µM; in assay [2], more than 66.3 µM; in [3] it was more than 100 µM; in assay [4], more than 35.8 µM; in [5], more than 28.5 µM; in [6], more than 100 µM. The TGI in [7] was more than 100 µM; in [8] it was 23.2 µM; in [9] it was more than 27.9 µM; in assay [10], more than 39.2 µM; in assay [11] it was 61.6 µM; in assay [12], more than 100 µM. The TGI in [13] is 22.8 µM.
On to `Cc1ccnc2c1C(=O)C1=C(OC(C)(C)CC1O)C2=O` (stereo not given), for which the TGI in [1] was 6.52 µM; in assay [2], 18.5 µM; in assay [3], 9.97 µM; in assay [4], 10.8 µM; in assay [5] it was 8.91 µM; in [6], 2.73 µM. For the same molecule, the TGI in [7] is 2.9 µM; in assay [8] it was 8.97 µM; in assay [9] it was more than 39.3 µM; in assay [10] it was 2.6 µM; in assay [11] it was 27.2 µM; in assay [12] it was 13.2 µM. This molecule registered a TGI in assay [13] of 11.3 µM.
`CCOC(=O)CCC(NC(=O)C(Cc1ccccc1)NC(=O)OCc1ccccc1)C(=O)OCC` (stereo not drawn) (Cbz-Phe-Glu(OEt)-OEt; configuration not given here): the TGI is 35.3 µM in assay [1]; 39.1 µM in assay [2]; 41.6 µM in assay [3]; 42.1 µM in assay [4]; 27.9 µM in assay [5]; 35.5 µM in assay [6]. For the same molecule, the TGI in [7] was 32.6 µM; in assay [8], 38.5 µM; in assay [9], more than 76 µM; in assay [10], 28.8 µM; in assay [11] it was 30.5 µM; in assay [12], 28.9 µM. The molecule also had a TGI in assay [13] of 31.2 µM.
Regarding `O=C1/C(=C\c2cccc(Oc3ccccc3)c2)S(=O)(=O)C(c2ccccc2)N1c1cccc(Cl)c1` (stereo not given), the TGI was more than 100 µM in assay [1]; more than 100 µM in assay [2]; more than 100 µM in [3]; more than 100 µM in assay [4]; 44.8 µM in [5]; more than 100 µM in assay [6]. The TGI is more than 100 µM in assay [7]; more than 100 µM in assay [8]; 78.8 µM in assay [9]; more than 100 µM in [10]; more than 100 µM in assay [11]; more than 100 µM in [12]. For the same molecule, the TGI in [13] was more than 100 µM.
Regarding `COc1cc2c(cc1O)NC(=O)[C@@H]1CCCN1C2=O`, the TGI in assay [1], in assay [2], in assay [3], in assay [4], in [5] and in assay [6] was more than 100 µM in each case. Besides, the TGI in [7], in assay [8], in [9], in assay [10], in assay [11] and in assay [12] was more than 100 µM in each case. In assay [13], this molecule had a TGI of more than 100 µM.
For the molecule `CN1CCN(/C(N)=C(\C#N)C(=O)Nc2ccc(Cl)cc2)CC1`, the TGI was 35.2 µM in assay [1]; more than 100 µM in [2]; more than 100 µM in assay [3]; more than 100 µM in assay [4]; more than 100 µM in assay [5]; more than 100 µM in assay [6]. Further, the TGI in assay [7], in assay [8], in assay [9], in assay [10], in assay [11] and in [12] was more than 100 µM each time. Further, the TGI in assay [13] was more than 100 µM.
In the case of `Cc1n[n+](Cc2ccccc2)c2sc(N)nn12`, the TGI in assay [1], in assay [2], in assay [3], in assay [4], in assay [5] and in assay [6] was more than 100 µM throughout. For the same molecule, the TGI in assay [7], in assay [9], in assay [10], in [11], in assay [12] and in assay [13] was more than 100 µM each time.
On to `CN1CCc2c(sc3[nH]c(=S)[nH]c(=S)c23)C1`, for which the TGI in assay [1], in [2], in [3], in [4], in assay [5] and in assay [6] was more than 100 µM in each case. Besides, the TGI in [7], in assay [8], in [9], in assay [10], in [11] and in assay [12] was more than 100 µM in each case.
As for `CC(=O)c1c(N=[N+]=[N-])c2cccc3c2n(c1=O)CCC3`, the TGI in [1] came out at 44.6 µM; in [2], 54.1 µM; in assay [3], 47.4 µM; in assay [4], 35.5 µM; in assay [5] it was 40.8 µM; in [6], 42.7 µM. Also, the TGI was 44.5 µM in assay [7]; 35.1 µM in assay [8]; 66.9 µM in assay [9]; 28.5 µM in assay [10]; more than 100 µM in assay [11]; 31.6 µM in assay [12]. The same molecule registered a TGI in assay [13] of 55.6 µM.
For `CC(=O)NC1C(Sc2ncn(C3OC(CO)C(O)C(O)C3NC(C)=O)n2)OC(CO)C(O)C1O` (stereo not given), the TGI in [1], in assay [2], in assay [3], in assay [4], in assay [5] and in [6] was more than 100 µM throughout. The TGI in assay [7], in [8], in assay [9], in assay [10], in [11] and in assay [12] was more than 100 µM throughout.
